Data: PMC5224920, “Assessing the mechanism and therapeutic potential of modulators of the human Mediator complex-associated protein kinases” (eLife, 2016)

Test system: 12 single or co-culture in vitro tissue models of primary cells
Experiment: Culture/co-culture cell model panel, extracellular biomarkers (DiscoveRx); as to CCL2/MCP-1: reference of the scale not given here; as to CD141/Thrombomodulin: reference of the scale not given here; as to CD142/Tissue Factor: reference of the scale not given here; as to CD38: reference of the scale not given here; as to CD40: reference of the scale not given here; as to CD69: reference of the scale not given here; as to CXCL8/IL-8: reference of the scale not given here; as to CXCL9/MIG: reference of the scale not given here; as to IL-1alpha: reference of the scale not given here; as to M-CSF: reference of the scale not given here; as to PBMC Cytotoxicity: reference of the scale not given here; as to SRB: reference of the scale not given here; as to sPGE2: reference of the scale not given here; as to sTNF-alpha: reference of the scale not given here
Assay type: cell-based, human
[1] = HDF3CGF stimulated fibroblasts, 1.00E3 nM
[2] = HDF3CGF stimulated fibroblasts, 1.00E4 nM
[3] = HPNo Huvec+PBMC unstimulated, 1.00E0 nM
[4] = HPNo Huvec+PBMC unstimulated, 1.00E1 nM
[5] = HPNo Huvec+PBMC unstimulated, 1.00E2 nM
[6] = HPNo Huvec+PBMC unstimulated, 1.00E3 nM
[7] = HPNo Huvec+PBMC unstimulated, 1.00E4 nM

CN1c2ccc(-c3cncc(Cl)c3N3CCC4(CC3)CNC(=O)O4)cc2CS1(=O)=O [CMPD2]
EGFR [1]: -0.052
M-CSF [1]: -0.096
MMP-1 [1]: 0.008
PAI-I [1]: -0.00267
Proliferation_72hr [1]: -0.251
SRB [1]: 0.000361
TIMP-1 [1]: -0.053
TIMP-2 [1]: 0.124
CCL2/MCP-1 [2]: -0.114
CD54/ICAM-1 [2]: -0.054
CD106/VCAM-1 [2]: 0.046
CXCL8/IL-8 [2]: -0.128
CXCL9/MIG [2]: -0.076
CXCL10/IP-10 [2]: 0.028
CXCL11/I-TAC [2]: -0.031
Collagen I [2]: 0.036
Collagen III [2]: 0.126
EGFR [2]: -0.055
M-CSF [2]: -0.106
MMP-1 [2]: 0.00332
PAI-I [2]: -0.018
Proliferation_72hr [2]: -0.340
SRB [2]: -0.00651
TIMP-1 [2]: -0.067
TIMP-2 [2]: 0.106
CCL2/MCP-1 [3]: 0.047
CD38 [3]: 0.008
CD40 [3]: -0.048
CD106/VCAM-1 [3]: 0.122
CD141/Thrombomodulin [3]: 0.013
CD142/Tissue Factor [3]: 0.008
CCL2/MCP-1 [4]: 0.017
CD38 [4]: -0.016
CD40 [4]: -0.068
CD106/VCAM-1 [4]: 0.183
CD141/Thrombomodulin [4]: -0.006
CD142/Tissue Factor [4]: 0.035
CCL2/MCP-1 [5]: 0.000304
CD38 [5]: 0.014
CD40 [5]: -0.055
CD106/VCAM-1 [5]: 0.274
CD141/Thrombomodulin [5]: 0.005
CD142/Tissue Factor [5]: 0.003
CCL2/MCP-1 [6]: 0.022
CD38 [6]: -0.028
CD40 [6]: -0.055
CD106/VCAM-1 [6]: 0.205
CD141/Thrombomodulin [6]: 0.027
CD142/Tissue Factor [6]: -0.00853
CCL2/MCP-1 [7]: 0.015
CD38 [7]: -0.095
CD40 [7]: -0.048
CD106/VCAM-1 [7]: 0.147
CD141/Thrombomodulin [7]: 0.018
CD142/Tissue Factor [7]: -0.051
CD69 (HPNo, 1.00E0 nM): 0.011
CXCL8/IL-8 (HPNo, 1.00E0 nM): 0.022
CXCL9/MIG (HPNo, 1.00E0 nM): 0.062
M-CSF (HPNo, 1.00E0 nM): 0.018
SRB (HPNo, 1.00E0 nM): -0.102
sPGE2 (HPNo, 1.00E0 nM): 0.045
sTNF-alpha (HPNo, 1.00E0 nM): 0.140
CD69 (HPNo, 1.00E1 nM): -0.097
CXCL8/IL-8 (HPNo, 1.00E1 nM): -0.006
CXCL9/MIG (HPNo, 1.00E1 nM): -0.00447
M-CSF (HPNo, 1.00E1 nM): -0.015
SRB (HPNo, 1.00E1 nM): -0.043
sPGE2 (HPNo, 1.00E1 nM): 0.026
sTNF-alpha (HPNo, 1.00E1 nM): 0.045
CD69 (HPNo, 1.00E2 nM): 0.035
CXCL8/IL-8 (HPNo, 1.00E2 nM): 0.008
CXCL9/MIG (HPNo, 1.00E2 nM): 0.020
M-CSF (HPNo, 1.00E2 nM): -0.038
SRB (HPNo, 1.00E2 nM): 0.011
sPGE2 (HPNo, 1.00E2 nM): 0.045
sTNF-alpha (HPNo, 1.00E2 nM): 0.037
CD69 (HPNo, 1.00E3 nM): -0.007
CXCL8/IL-8 (HPNo, 1.00E3 nM): 0.014
CXCL9/MIG (HPNo, 1.00E3 nM): -0.00342
M-CSF (HPNo, 1.00E3 nM): 0.051
SRB (HPNo, 1.00E3 nM): 0.00149
sPGE2 (HPNo, 1.00E3 nM): 0.054
sTNF-alpha (HPNo, 1.00E3 nM): -0.000698
CD69 (HPNo, 1.00E4 nM): -0.024
CXCL8/IL-8 (HPNo, 1.00E4 nM): 0.024
CXCL9/MIG (HPNo, 1.00E4 nM): -0.063
M-CSF (HPNo, 1.00E4 nM): -0.029
SRB (HPNo, 1.00E4 nM): -0.014
sPGE2 (HPNo, 1.00E4 nM): 0.013
sTNF-alpha (HPNo, 1.00E4 nM): 0.230
CCL2/MCP-1 (LPS Huvec+PBMC, 1.00E0 nM): 0.007
CD40 (LPS Huvec+PBMC, 1.00E0 nM): -0.057
CD69 (LPS Huvec+PBMC, 1.00E0 nM): -0.008
CD106/VCAM-1 (LPS Huvec+PBMC, 1.00E0 nM): 0.052
CD141/Thrombomodulin (LPS Huvec+PBMC, 1.00E0 nM): 0.041
CD142/Tissue Factor (LPS Huvec+PBMC, 1.00E0 nM): 0.093
CXCL8/IL-8 (LPS Huvec+PBMC, 1.00E0 nM): -0.00258
IL-1alpha (LPS Huvec+PBMC, 1.00E0 nM): 0.057
M-CSF (LPS Huvec+PBMC, 1.00E0 nM): 0.019
SRB (LPS Huvec+PBMC, 1.00E0 nM): -0.024
sPGE2 (LPS Huvec+PBMC, 1.00E0 nM): 0.070
sTNF-alpha (LPS Huvec+PBMC, 1.00E0 nM): 0.028
CCL2/MCP-1 (LPS Huvec+PBMC, 1.00E1 nM): -0.031
CD40 (LPS Huvec+PBMC, 1.00E1 nM): -0.098
CD69 (LPS Huvec+PBMC, 1.00E1 nM): -0.024
CD106/VCAM-1 (LPS Huvec+PBMC, 1.00E1 nM): 0.019
CD141/Thrombomodulin (LPS Huvec+PBMC, 1.00E1 nM): 0.064
CD142/Tissue Factor (LPS Huvec+PBMC, 1.00E1 nM): 0.086
CXCL8/IL-8 (LPS Huvec+PBMC, 1.00E1 nM): -0.035
IL-1alpha (LPS Huvec+PBMC, 1.00E1 nM): 0.041
M-CSF (LPS Huvec+PBMC, 1.00E1 nM): -0.003
SRB (LPS Huvec+PBMC, 1.00E1 nM): -0.065
sPGE2 (LPS Huvec+PBMC, 1.00E1 nM): 0.126
sTNF-alpha (LPS Huvec+PBMC, 1.00E1 nM): 0.036
CCL2/MCP-1 (LPS Huvec+PBMC, 1.00E2 nM): -0.057
CD40 (LPS Huvec+PBMC, 1.00E2 nM): -0.098
CD69 (LPS Huvec+PBMC, 1.00E2 nM): 0.050
CD106/VCAM-1 (LPS Huvec+PBMC, 1.00E2 nM): 0.052
CD141/Thrombomodulin (LPS Huvec+PBMC, 1.00E2 nM): 0.070
CD142/Tissue Factor (LPS Huvec+PBMC, 1.00E2 nM): 0.084
CXCL8/IL-8 (LPS Huvec+PBMC, 1.00E2 nM): -0.122
IL-1alpha (LPS Huvec+PBMC, 1.00E2 nM): 0.033
M-CSF (LPS Huvec+PBMC, 1.00E2 nM): -0.006
SRB (LPS Huvec+PBMC, 1.00E2 nM): -0.068
sPGE2 (LPS Huvec+PBMC, 1.00E2 nM): 0.155
sTNF-alpha (LPS Huvec+PBMC, 1.00E2 nM): 0.039
CCL2/MCP-1 (LPS Huvec+PBMC, 1.00E3 nM): -0.096
CD40 (LPS Huvec+PBMC, 1.00E3 nM): -0.100
CD69 (LPS Huvec+PBMC, 1.00E3 nM): 0.022
CD106/VCAM-1 (LPS Huvec+PBMC, 1.00E3 nM): 0.055
CD141/Thrombomodulin (LPS Huvec+PBMC, 1.00E3 nM): 0.054
CD142/Tissue Factor (LPS Huvec+PBMC, 1.00E3 nM): 0.086
CXCL8/IL-8 (LPS Huvec+PBMC, 1.00E3 nM): -0.148
IL-1alpha (LPS Huvec+PBMC, 1.00E3 nM): 0.00095
M-CSF (LPS Huvec+PBMC, 1.00E3 nM): -0.00124
SRB (LPS Huvec+PBMC, 1.00E3 nM): -0.066
sPGE2 (LPS Huvec+PBMC, 1.00E3 nM): 0.173
sTNF-alpha (LPS Huvec+PBMC, 1.00E3 nM): 0.034
CCL2/MCP-1 (LPS Huvec+PBMC, 1.00E4 nM): -0.102
CD40 (LPS Huvec+PBMC, 1.00E4 nM): -0.101
CD69 (LPS Huvec+PBMC, 1.00E4 nM): 0.034
CD106/VCAM-1 (LPS Huvec+PBMC, 1.00E4 nM): 0.035
CD141/Thrombomodulin (LPS Huvec+PBMC, 1.00E4 nM): 0.062
CD142/Tissue Factor (LPS Huvec+PBMC, 1.00E4 nM): 0.080
CXCL8/IL-8 (LPS Huvec+PBMC, 1.00E4 nM): -0.154
IL-1alpha (LPS Huvec+PBMC, 1.00E4 nM): -0.070
M-CSF (LPS Huvec+PBMC, 1.00E4 nM): -0.021
SRB (LPS Huvec+PBMC, 1.00E4 nM): -0.070
sPGE2 (LPS Huvec+PBMC, 1.00E4 nM): 0.182
sTNF-alpha (LPS Huvec+PBMC, 1.00E4 nM): -0.175
CCL2/MCP-1 (SAg, 1.00E0 nM): 0.032
CD38 (SAg, 1.00E0 nM): -0.023
CD40 (SAg, 1.00E0 nM): -0.085
CD69 (SAg, 1.00E0 nM): 0.033
CXCL8/IL-8 (SAg, 1.00E0 nM): 0.067
CXCL9/MIG (SAg, 1.00E0 nM): -0.004
PBMC Cytotoxicity (SAg, 1.00E0 nM): 0.038
Proliferation (SAg, 1.00E0 nM): 0.024
SRB (SAg, 1.00E0 nM): -0.013
CCL2/MCP-1 (SAg, 1.00E1 nM): -0.012
CD38 (SAg, 1.00E1 nM): -0.063
CD40 (SAg, 1.00E1 nM): -0.169
CD69 (SAg, 1.00E1 nM): 0.018
CXCL8/IL-8 (SAg, 1.00E1 nM): -0.038
CXCL9/MIG (SAg, 1.00E1 nM): -0.018
PBMC Cytotoxicity (SAg, 1.00E1 nM): 0.015
Proliferation (SAg, 1.00E1 nM): 0.017
SRB (SAg, 1.00E1 nM): -0.031
CCL2/MCP-1 (SAg, 1.00E2 nM): -0.066
CD38 (SAg, 1.00E2 nM): -0.040
CD40 (SAg, 1.00E2 nM): -0.131
CD69 (SAg, 1.00E2 nM): 0.026
CXCL8/IL-8 (SAg, 1.00E2 nM): -0.133
CXCL9/MIG (SAg, 1.00E2 nM): -0.055
PBMC Cytotoxicity (SAg, 1.00E2 nM): 0.00148
Proliferation (SAg, 1.00E2 nM): 0.021
SRB (SAg, 1.00E2 nM): -0.056
CCL2/MCP-1 (SAg, 1.00E3 nM): -0.072
CD38 (SAg, 1.00E3 nM): -0.069
CD40 (SAg, 1.00E3 nM): -0.122
CD69 (SAg, 1.00E3 nM): 0.050
CXCL8/IL-8 (SAg, 1.00E3 nM): -0.196
CXCL9/MIG (SAg, 1.00E3 nM): -0.061
PBMC Cytotoxicity (SAg, 1.00E3 nM): 0.00529
Proliferation (SAg, 1.00E3 nM): 0.010
SRB (SAg, 1.00E3 nM): -0.049
CCL2/MCP-1 (SAg, 1.00E4 nM): -0.111
CD38 (SAg, 1.00E4 nM): -0.058
CD40 (SAg, 1.00E4 nM): -0.144
CD69 (SAg, 1.00E4 nM): 0.006
CXCL8/IL-8 (SAg, 1.00E4 nM): -0.208
CXCL9/MIG (SAg, 1.00E4 nM): -0.061
PBMC Cytotoxicity (SAg, 1.00E4 nM): 0.00852
Proliferation (SAg, 1.00E4 nM): -0.041
SRB (SAg, 1.00E4 nM): -0.053
